Molecules are shown by their SMILES.

The data set can be described thus: gradient 5% acetonitrile 3 min, to 50% in 2 min, to 85% in 15 min, held 3 min, 100 µL/min. As to conditions: column: Zorbax Extend-C18 2.1 x 50 mm; eluents: water / acetonitrile, 0.1% formic acid. The method in brief: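 Standards, all pure, were combined into mixtures of ~100 molecules and run at 100 μL/min on a Zorbax Extend-C18 column (2.1 × 50 mm, 1.8 μm) with water and acetonitrile, each containing 0.1% formic acid. A coupled quadrupole time-of-flight mass spectrometer operated in positive and negative ionization mode. Retention time values come from computationally picked adduct peaks, each inspected manually.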
`CC(C(=O)NCCCN1CCN(C2CCCCC2)CC1)n1c(=O)c(C(F)(F)F)nc2ccccc21` (stereo unspecified) registered an RP-LC retention time of 639 s.
The molecule `COc1ccccc1N1CCN(C(=O)c2nnc(-c3ccc(S(=O)(=O)N4CCCC4)cc3)o2)CC1` had an RP-LC retention time of 972 s.
As for `Cn1c(=O)c2cc(C(=O)NCc3cccnc3)nn2c2ccccc21`, the RP-LC retention time is 599 s.
Molecule `Cn1c(C(=O)NCCCN2CCC(Cc3ccccc3)CC2)cc2c(=O)n(C)c3ccccc3c21` gave an RP-LC retention time of 707 s.
Consider `Cc1cccc(OCc2nc(C)c(C(=O)Nc3nc(-c4ccc5c(c4)OCCCO5)cs3)s2)c1`, for which the RP-LC retention time stood at 1230 s.
For `O=C1CCc2cc(S(=O)(=O)N3CCCC3C(=O)N3CCN(c4ccccc4)CC3)ccc2N1` (stereo unspecified), the RP-LC retention time was 713 s.
In turn, `CCCc1noc(-c2ccc3nnc(CC(=O)Nc4ccccc4F)n3c2)n1` showed an RP-LC retention time of 872 s.
Then `O=S(=O)(c1ccc(-c2noc(-c3ccccc3Cl)n2)cc1)N1CCOCC1`, with 1100 s; and `Cc1c(C)c2cc3c(=O)ccoc3c(C)c2oc1=O`, with 780 s.
With `Cc1ccc(-c2noc(Cn3nc(-c4ccccc4F)ccc3=O)n2)cc1`, the RP-LC retention time was 1050 s.
`CCN(CC)S(=O)(=O)c1ccc(NC(=O)N2CCCC(C(=O)Nc3cccc(Cl)c3)C2)s1` (stereo unspecified): the RP-LC retention time came to 996 s.
Then `Cc1ccc(S(=O)(=O)Nc2cncc(C(=O)O)c2)cc1`, with 614 s.
Then `CCCOc1ccc(C(=O)Nc2nnc(SCc3nnc(-c4ccccc4C)o3)s2)cc1`, with 1110 s; and `O=C(NCCN1CCCC1)c1cccc(N2CCNC(c3ccccc3)C2)n1` (stereo unspecified), with 553 s.
Then `CCOc1ccc(S(=O)(=O)N2CCC(C(=O)NCCOC)CC2)cc1`, with 709 s; and `O=C(C1CCCN(c2nc3cccnc3s2)C1)N1CCN(c2ccccc2)CC1` (stereo unspecified), with 844 s; and `CCCNC(=O)N1CCC(c2cnn(-c3ccccc3)c2)CC1`, with 779 s.
`CN(C(=O)Cn1cnc2c(-c3ccc(Cl)cc3)csc2c1=O)c1ccc(F)cc1` came in with an RP-LC retention time of 1180 s.
`CCn1cc(CCNC(=O)CC(C)C)c2cccnc21`: the RP-LC retention time came out at 656 s.
As for `COc1ccccc1-c1noc(C2CCCN2C(=O)c2ccc3cc[nH]c3c2)n1` (stereo unspecified), the figure is 830 s; as for `COc1ccc(CNC(=O)C2CCN(S(=O)(=O)c3ccc4c(c3)NC(=O)C(C)O4)CC2)cc1` (stereo unspecified), 788 s; as for `O=C(Cn1cnc2ccccc2c1=O)N1CCC(Cn2cccn2)CC1`, 616 s.
Then `COc1cccc(-c2cc(N3CCN(C(=O)Nc4ccc5c(c4)OCCO5)CC3)ncn2)c1`, with 660 s; and `CCc1nnc(-c2ccc3ccn(CC(=O)Nc4cc(C)ccn4)c3c2)o1`, with 705 s.
Consider `COc1ccc(/C=C/C(=O)Oc2cc(O)cc(O)c2)cc1`, for which the RP-LC retention time came out at 763 s.
The molecule `CCCNC(=O)N1CCN(c2nc3ccccc3n(Cc3ccc(C)cc3)c2=O)CC1` gave an RP-LC retention time of 978 s.
In the case of `CCn1ncc2ccc(C(=O)NC)cc21`, the RP-LC retention time came to 608 s.
For `Cc1cc(C)c(C(=O)N2CCC(CC(=O)NC3CCCCCC3)CC2)[nH]1`, the RP-LC retention time stood at 800 s.
For `Cc1cccn2cc(-c3ccc(NS(=O)(=O)c4ccc(Br)cc4)cc3)nc12`, the RP-LC retention time amounted to 674 s.
`Cc1ccccc1N1CCN(C(=O)c2csc(C(=O)NC3CC3)n2)CC1` yielded an RP-LC retention time of 884 s.
In turn, `Cc1ccc(-c2ncccc2CNS(=O)(=O)c2cc(F)ccc2C)cc1` yielded an RP-LC retention time of 738 s.
Regarding `CCn1c(N2CCC(C(=O)NCc3ccc4c(c3)OCO4)CC2)cc(=O)n(C)c1=O`, the RP-LC retention time is 740 s.
For `COc1ccc2c(c1)C1(CCN(C(=O)C(C)(C)C)C1)C(=O)N2` (stereo unspecified), the RP-LC retention time turned out to be 703 s.
As for `CCOc1cc(-c2ccc(C)cc2)nc2ccc(NC(=O)c3cccs3)cc12`, the figure is 824 s.
`CC1CCCCN1CCNC(=O)c1cc(S(=O)(=O)N2CCCCC2)ccc1Cl` (stereo unspecified) gave an RP-LC retention time of 651 s.
`O=C(Nc1nc(-c2cccc([N+](=O)[O-])c2)cs1)c1ccc(Cl)cc1Cl` had an RP-LC retention time of 1060 s.
For `O=c1ccc(-c2ccc(F)cc2)nn1CCc1nc(-c2ccncc2)no1`, the RP-LC retention time came out at 758 s.
In turn, `O=C(NCC1CC1)C1CCN(C(=O)c2ncn3c2COC(c2ccccc2)C3)CC1` (stereo unspecified) returned an RP-LC retention time of 681 s.
As to `CCc1ccc(Nc2nc(C(=O)NCCc3ccco3)nc3ccccc23)cc1`, the RP-LC retention time is 855 s.
The molecule `CCN(CC)C(=O)N1CCC2(CC1)C(OC)C(=O)N2c1cccc(F)c1` (stereo unspecified) displayed an RP-LC retention time of 937 s.
With `COc1ccc(NC(=O)c2cc(C)n3nccc3n2)cc1Cl`, the RP-LC retention time was determined as 942 s.
As for `O=C(Cn1cnc2ccccc2c1=O)NC1CC1`, the figure is 596 s; as for `CC(C)(C)c1nnc(NC(=O)C2CCN(C(=O)c3cccc(F)c3)CC2)s1`, 765 s; as for `O=C(Nc1c(F)cccc1F)N1CCc2nc(-c3ccccc3)ncc2C1`, 811 s.
Molecule `Cc1cccc(NC(=O)c2cnc3c(c2)c(=O)n(C)c(=O)n3-c2ccccc2)c1` displayed an RP-LC retention time of 926 s.
As for `CCCCNS(=O)(=O)c1cc(-c2[nH]ncc2C(=O)N2CCCC2)oc1C`, the figure is 668 s; as for `O=c1c2scc(-c3ccc(F)cc3)c2ncn1Cc1cc(=O)n2ccccc2n1`, 810 s.
As for `CCc1cc(N2CCN(C(=O)COc3ccc(OC)cc3)CC2)nc2nncn12`, the RP-LC retention time worked out at 602 s.
Regarding `CC(C)N1CCC(F)(c2nc(-c3ccccc3)no2)CC1`, the RP-LC retention time worked out at 657 s.
For `Cc1ccc(C)c(-c2cc3c4nn(CC(=O)N(C)c5ccc(F)cc5)c(=O)n4ccn3n2)c1`, the RP-LC retention time came out at 1020 s.
In the case of `CC(C)CN1C(=O)c2cccn2CC1C(=O)NCCCN1CCN(C)CC1` (stereo unspecified), the RP-LC retention time was determined as 548 s.
`COc1ccc(OC)c(N2C=C(C#N)S(=O)(=O)c3ccc(C)cc32)c1` showed an RP-LC retention time of 925 s.
As for `O=C(CN1C(=O)CC(c2cccs2)=Nc2ccccc21)Nc1ccc(F)cc1F`, the figure is 946 s.
`O=C(c1ccc(Cl)s1)N1CC(F)(F)C[C@H]1COc1cccnc1` gave an RP-LC retention time of 731 s.
`CCN1C(=O)C(C)(C(=O)Nc2cc(C)cc(C)c2)Oc2cccnc21` (stereo unspecified) returned an RP-LC retention time of 982 s.
`COC(=O)c1cccc(Nc2c(-c3ccc(OC)cc3)nc3cnccn23)c1` had an RP-LC retention time of 810 s.
`COc1ccc(NC(=O)Cn2c(C(C)C)nc3c(c2=O)CN(Cc2ccccc2)CC3)cc1` yielded an RP-LC retention time of 685 s.
`CN1CCC(OC2CCN(C(=O)c3ccc(Cl)cc3)CC2)CC1` came in with an RP-LC retention time of 601 s.
`CCc1nc2cc(N3CCCC(C(=O)NCC4CC4)C3)cnc2nc1CC` (stereo unspecified) returned an RP-LC retention time of 762 s.
Then `CCCCN(C)C(=O)C1CCCN(c2cnc3nccnc3c2)C1` (stereo unspecified), with 686 s; and `CN(C)S(=O)(=O)c1ccc(C(=O)Nc2nc3c(s2)CCc2ccccc2-3)cc1`, with 1110 s; and `CCc1noc(-c2ccc(SCC(=O)N3CCN(c4ccccn4)CC3)nc2)n1`, with 619 s.
Then `COc1ccccc1CCNC(=O)CCCn1cccc1`, with 774 s; and `CCOc1ccc(C(=O)NCC(=O)Nc2nc3ccccc3[nH]2)cc1`, with 648 s.
`Cc1cc(C(=O)N2CCOCC2)nn1CC(=O)Nc1nc2ccccc2s1` came in with an RP-LC retention time of 683 s.
`CC1Cc2ccccc2N1C(=O)CCn1c(=O)sc2ccccc21` (stereo unspecified) showed an RP-LC retention time of 923 s.
Consider `COC(=O)c1c(C)[nH]c(C(=O)N2CCC(CC(=O)NC(c3cccs3)C(C)C)CC2)c1C` (stereo unspecified), for which the RP-LC retention time was found to be 805 s.
For `CS(=O)(=O)N1CCN(CCNC(=O)Nc2cccc(C(F)(F)F)c2)CC1`, the RP-LC retention time worked out at 576 s.
With `COc1ccc(N2CCOCC2)c2sc(NC(=O)N3CCC(C)(O)CC3)nc12`, the RP-LC retention time turned out to be 732 s.
In turn, `CNCc1ccc(-c2ccccc2Cl)o1` displayed an RP-LC retention time of 642 s.
The molecule `Cc1cc(C)cc(C(=O)N2CCCC2COc2ccc(C(=O)NC(C)C)cc2)c1` (stereo unspecified) gave an RP-LC retention time of 922 s.
`CC(C)CCNC(=O)C1CCN(c2cnn(Cc3ccccc3)c(=O)c2)CC1`: the RP-LC retention time turned out to be 790 s.
Turning to `O=C(Nc1ccc2nc3n(c(=O)c2c1)CCCC3)Nc1ccccc1Br`, the RP-LC retention time is 735 s.
In the case of `CN(CCc1noc(COc2ccccc2)n1)C(=O)Nc1cccc(Br)c1`, the RP-LC retention time is 964 s.
`Cc1cccc(-c2csc3c(=O)n(Cc4ccccn4)cnc23)c1` registered an RP-LC retention time of 877 s.
The molecule `COC(=O)c1ccc(NC(=O)C2(C)Oc3cccnc3N(C(C)C)C2=O)cc1` (stereo unspecified) displayed an RP-LC retention time of 991 s.
On to `Cc1ccc(-c2noc(CN3N=NC4C(=O)N(c5ccc(C)c(C)c5)C(=O)C43)n2)cc1` (stereo unspecified), for which the RP-LC retention time turned out to be 1110 s.
The molecule `CCCn1cc(S(=O)(=O)Nc2cccc(F)c2C)c2cccnc21` showed an RP-LC retention time of 861 s.
In the case of `CCCn1cc(C(=O)NCc2ccccn2)c2cccnc21`, the RP-LC retention time was 595 s.
`COCCC(=O)N1CC(c2nc(CCOC)no2)C1` registered an RP-LC retention time of 581 s.
On to `Cc1nn(Cc2nc(-c3ccc(NC(=O)C4CCC4)cc3)oc2C)c(C)c1C`, for which the RP-LC retention time was determined as 881 s.

Source of the values: the METLIN SMRT retention time set (Domingo-Almenara et al. 2019).
